Assay results from patent US9963474B2, “Mitochondria-targeted dicarbonyl sequestering compounds” (MEDICAL RESEARCH COUNCIL, priority 2013, dated 2018).

Assays:
[1] = Reaction with reactive aldehydes followed by RP-HPLC; settings: RP-HPLC analysis, data not shown
Excerpt: MitoG reacted with methylglyoxal and glyoxal to form products with identical absorption, fluorescence and RP-HPLC properties (FIGS. 3E, F, G & H) to those of independently synthesized and characterized MQE or QE (FIGS. 3B, C & D). […] Thus the reaction of MitoG with these aldehydes is not diagnostically useful, in contrast to that with 1,2-dicarbonyls, which generates stable, dominant products.

[2] = Competitive rate experiment for methylglyoxal monitored by 1H NMR; settings: 0.12 mM, DMSO, 25° C.
BAECs [3] = assay: Cell survival, MTS assay, BAECs; assay type: cell-based, bovine; settings: BAEC, 24 h
Description: (§1) (A, B) RLM respiring on glutamate/malate at 37° C. were incubated with various concentrations of MitoG for 7 min in an oxygen electrode to measure coupled respiration (A) before ADP was added to measure phosphorylating respiration (B). Data are the percentage of the respiration rates of untreated controls (dashed lines). (C and D) C2C12 cells (C) or BAECs [Bovine Aortic Endothelial Cells; Cell Applications Inc, San Diego, Calif.] (D) were incubated with MitoG for 24 h and cell survival was then determined using the MTS assay. Data are expressed as a percentage of the untreated controls (dashed line). (E-H) BAECs were incubated with MitoG for 2 h at 37° C. and the cellular oxygen consumption rate (OCR) after the sequential additions of oligomycin, FCCP and antimycin A/rotenone were then measured using a Seahorse XF24 analyser. (E) OCR due to ATP synthesis, (F) OCR due to proton leak, (G) reserve capacity and (H) non-mitochondrial oxygen consumption. Results are means±S.E. of three independent experiments. *, P<0.05 or **, P<0.01 relative to untreated controls.
(§2) To assess cell viability, C2C12 cells or BAECs were seeded at a density of 10,000 cells/well and 40,000 cells/well, respectively, in 96-well plates. […] After 2 h absorbance was read at 490 nm in a plate reader (SpectraMax Plus 384, Molecular Devices). […]

C2C12 cells [4] = assay: Protection against dicarbonyl-induced cell death, C2C12, MTS assay; assay type: cell-based, mouse; settings: pre-treated 1 h, overnight
Description: (§3) Isolated RLM respiring on glutamate/malate were incubated with MitoG, methoxyphenylenediamine (MP) or butylTPP for 2 min, followed by 0.5 mM methylglyoxal or 5 mM glyoxal for 5 min. ADP was then added and the rate of oxygen consumption monitored at 37° C. (see FIGS. 12A & 12B). C2C12 cells were pre-treated with MitoG, methoxyphenylenediamine (MP) or butylTPP for 1 h before exposure to 1 mM methylglyoxal or 5 mM glyoxal (see FIGS. 12C & 12D). Following an overnight incubation, cell survival was determined using the MTS assay. Similar experiments were conducted in BAECs pre-treated with MitoG, MP or butylTPP. For all experiments, concentrations of methylglyoxal and glyoxal used were chosen based on results from studies conducted prior to the protection assays. In these prior studies, RLM or cells were exposed to a range of dicarbonyl concentrations, and the phosphorylating rates of respiration or cell survival were evaluated. The results of these earlier experiments are shown in insets, and dicarbonyl concentrations that had caused significant respiratory depression or cell death were chosen for use in the protection assays. Data for all groups were normalized against untreated controls. For RLM, the rate of respiration by untreated controls was taken to be 100%; for cells, cell survival of untreated controls was taken to be 100%. Results are expressed as mean±S.E. of three independent experiments. MitoG was protective against methylglyoxal-induced respiratory depression and both methylglyoxal- and glyoxal-induced cell death in C2C12 cells and BAECs. […] In FIG. 12 the symbols *, ** respectively indicate that P<0.05 or P<0.01 relative to dicarbonyl-only groups; and the symbols +, ++ respectively indicate that P<0.05 or P<0.01 relative to untreated controls.

BAECs [5] = assay: Protection against dicarbonyl-induced cell death, BAECs, MTS assay; assay type: cell-based, bovine; settings: pre-treated 1 h, overnight
Description: as §3

[6] = Stability of compounds assessed by RP-HPLC; assay type: physicochemical
Description: RP-HPLC was performed using a Gilson 321 pump with a C18 column (Jupiter 300 Å, Phenomenex) with a Widepore C18 guard column (Phenomenex). Samples (1 ml) were injected through a 0.22 μm PVDF filter (Millex, Millipore). HPLC buffer A [0.1% TFA in water] and HPLC buffer B (90% acetonitrile and 0.1% TFA) were used and a gradient was run at 1 ml/min at room temperature as follows: 0-2 min—5% B; 2-17 min—5-100% B; 17-19 min—100% B; 19-22 min—100-5% B. Peaks were detected by absorbance at 220 nm (UV/Vis 151, Gilson) and by fluorescence (excitation and emission wavelengths of 344 and 433 nm; RF-10AXL, Shimadzu). Partition coefficients between PBS and octan-1-ol were determined as previously described.
The syntheses of MitoG, its predicted quinoxaline products upon reaction with methylglyoxal and glyoxal, and their deuterated versions are summarized in FIG. 2. As expected, the spectrum of MitoG was a summation of those of the phenylenediamine, hexyloxyphenylenediamine (HP), and a simple alkylTPP salt.
The expected products of the reaction of MitoG with methylglyoxal (MQE) and glyoxal (QE) were synthesized and have UV/Vis absorption spectra distinct from that of MitoG (FIG. 3B). Both QE and MQE were fluorescent, while MitoG was not (FIG. 3C). The three compounds were resolved by RP-HPLC (FIG. 3D) although the MQE regioisomers (MQE1, MQE2; FIG. 1B) were not distinguished. Both MQE and QE were stable after one week at 37° C. as assessed by RP-HPLC (data not shown). It was concluded that MitoG is sufficiently stable for biological experiments involving trapping of glyoxal and methylglyoxal within mitochondria in cells and in vivo, and the reaction products MQE and QE were both robustly stable for chemical isolation and subsequent LC-MS/MS analyses.

C2C12 cells [7] = assay: Cell survival, MTS assay, C2C12; assay type: cell-based, mouse; settings: C2C12, 24 h
Description: as §1, §2

In the case of Nc1ccc(OCCCCCC[P+](c2ccccc2)(c2ccccc2)c2ccccc2)cc1N [MitoG, (6-(3,4-Diaminophenoxy)hexyl)triphenylphosphonium chloride], the “reaction with HNE or acrolein” value [1] is reported as “did react, a number of products were formed some of which were unstable”, the “reactivity relative to o-phenylenediamine for methylglyoxal” value [2] is reported as roughly 1.8 × and the “concentration above which cell viability decreased” value (BAECs [3]) is reported as greater than 50 µM. The “protection against methylglyoxal-induced cell death” value (C2C12 cells [4]; C2C12, 1 mM methylglyoxal) was “protective”, the “protection against glyoxal-induced cell death” value (C2C12 cells [4]; C2C12, 5 mM glyoxal) was “protective” and the “protection against glyoxal-induced cell death” value (BAECs [5]) was “protective”. The “protection against methylglyoxal-induced cell death” value (BAECs [5]) was “protective”, the “decomposition of dilute solutions, loss by 4 h” value ([6]; 37° C., 4 h) was “minimal loss” and the “decomposition of dilute solutions, loss by 24 h” value ([6]; 37° C., 24 h) was “significant loss”. For the same molecule, the “duration of biological experiments for which sufficiently stable” value ([6]; dilute solutions, 37° C.) was roughly 4 h, the “stability of stock solutions” value ([6]; storage at −20° C., RP-HPLC) was “stable” and the “concentration above which cell viability decreased” value (C2C12 cells [7]) was “above 10 μM”.
